What was measured:
Assay type in all cases: cell-based, human
[1] = system: H1975 (EGFR L858R/T790M double mutation); assay: Cell antiproliferative assay (CTG, 72 h), H1975; conditions: Table 2, H1975 cells
Method: (§1) Test Example 1 Cell Antiproliferative Assay
(§2) H1975: with EGFR: L858R/T790M double mutation; PC-9 with EGFR exon 19 deletion, HCC827 with exon 19 deletion mutation. CellCounting-Lite2.0, Trypsin EDTA, 37° C. CO2 incubator, cell counter, EnVision Serial No.1050454. II. Experimental preparation:
(§3) • (A) Trypsin EDTA was used to digest log-phase cells, medium was added to terminate the reaction, and a cell suspension was made by blowing and mixing with a pipette. • (B) Cell concentration was determined using Vi-cell, and a suspension of 15,000-25,000 cells per milliliter was made depending on the purpose of the experiment and the characteristics of the cells. • (C) After the cell suspension was prepared, it was gently mixed and 100 microliters per well was added so that the density of cells to be tested was 1500-2500 per well.
(§4) • (A) About 2 mg of compound was weighed, and the volume of DMSO required was calculated according to the formula: compound mass (mg)*compound purity (%)/compound molecular weight*1000 • (B) The inoculated cell culture plates were incubated in an incubator and the compounds with concentration gradient were added after about 24 hours. • (C)10 Mm of compound stock solution was diluted to […] with medium, and 50 Mm of compound solution was added sequentially to the second column of the deep-well plate, and […] of medium containing 0.5% DMSO was added to the third to eleventh columns. • (D) Gradient dilution: 125 μl of solution was pipetted from the second column and added to the third column, after mixing; another 125 μl of solution was pipetted from the third column and added to the fourth column, and the operation was repeated until the tenth column. • (E)25 μl of compound was pipetted from the deep-well plate into a 96-well culture plate using a multichannel pipette, and each compound was repeated three times on the 96-well plate. A maximum concentration of 10,000 nm with concentration gradient of 1:4 was eventually formed on the 96-well plate.
(§5) • (A)96-well plates were incubated in an incubator for 72 h. The effect of the compounds was observed under an inverted microscope. • (B)25 μl of CTG solution was added to each well, the plate was put on shaker for 10 minutes and the […] of each well was read.
(§6) The cell viability rate (% Cell Viability) was calculated using the following formula: • % Cell Viability=100%×(Lum_Sample-Lum_LC)/(Lum_HC-Lum_LC) • Lum_HC: Cell reading of 0.1% DMSO control • Lum_Sample: Cell reading with compound added • Lum_LC: Reading of Blank media • IC50 values were obtained by curve fitting with GraphPad Prism 8 software.

[2] = system: HCC827 (exon 19 deletion mutation); assay: Cell antiproliferative assay (CTG, 72 h), HCC827; conditions: Table 2, HCC827 cells
Method: as §1, §2, §3, §4, §5, §6

[3] = system: PC-9 (EGFR exon 19 deletion); assay: Cell antiproliferative assay (CTG, 72 h), PC-9; conditions: Table 2, PC-9 cells
Method: as §1, §2, §3, §4, §5, §6

| SMILES | IC50 ([1]; Homo sapiens, NCI-H1975, 72 h) [nM] | IC50 ([2]; Homo sapiens, HCC827, 72 h) [nM] | IC50 ([3]; Homo sapiens, PC-9, 72 h) [nM] | also measured |
| --- | --- | --- | --- | --- |
| COc1cc(N2CCN(C(=O)CN3CCC(c4ccc(NC5CCC(=O)NC5=O)cc4)CC3)CC2)ccc1Nc1ncc(Cl)c(Nc2ccccc2)n1 (stereo not drawn) [Compound T-01] | 10 to 100 | 100 to 1000 | 100 to 1000 |  |
| COc1cc(N2CCN(C(=O)CN3CCC(c4ccc(NC5CCC(=O)NC5=O)cc4F)CC3)CC2)ccc1Nc1ncc(Cl)c(Nc2ccccc2)n1 (stereo not drawn) [Compound T-04] | 10 to 100 | ≥ 1000 | 100 to 1000 |  |
| COc1cc(N2CCN(C(=O)CN3CCC(c4ccc(NC5CCC(=O)NC5=O)cc4)CC3)CC2)ccc1Nc1ncc(Cl)c(Nc2cccc(F)c2)n1 (stereo not drawn) [Compound T-09] | 10 to 100 | ≥ 1000 | ≥ 1000 |  |
| COc1cc(N2CCN(C(=O)CN3CCC(c4ccc5c(N6CCC(=O)NC6=O)nn(C)c5c4)CC3)CC2)ccc1Nc1ncc(Cl)c(Nc2ccccc2)n1 [Compound T-14] | 10 to 100 | ≥ 1000 | ≥ 1000 |  |
| COc1cc(N2CCN(C(=O)CN3CCC(c4ccc(NC5CCC(=O)NC5=O)cc4)CC3)CC2)ccc1Nc1ncc(C(F)(F)F)c(Nc2ccc(F)cc2)n1 (stereo not drawn) [Compound T-51] | 10 to 100 |  | ≥ 1000 | IC50 [2]: ≥ 1000 nM |
| COc1cc(N2CCN(C(=O)CN3CCC(c4ccc(NC5CCC(=O)NC5=O)cc4)CC3)CC2)ccc1Nc1ncc(C(F)(F)F)c(Nc2ccc(F)cc2)n1 (stereo not drawn) [Compound T-52] |  |  |  | IC50 [1]: 10 to 100 nM; IC50 [2]: 100 to 1000 nM; IC50 [3]: ≥ 1000 nM |
| COc1cc(C2CCN(C(=O)CN3CCC(c4ccc(NC5CCC(=O)NC5=O)cc4)CC3)CC2)ccc1Nc1ncc(Cl)c(Nc2ccccc2C(C)=O)n1 (stereo not drawn) [Compound T-69] |  |  |  | IC50 [1]: 100 to 1000 nM; IC50 [2]: 100 to 1000 nM; IC50 [3]: 100 to 1000 nM |
| COc1cc(N2CCN(C(=O)CN3CCN(c4ccc(NC5CCC(=O)NC5=O)cc4)CC3)CC2)ccc1Nc1ncc(Cl)c(Nc2ccccc2C(C)=O)n1 (stereo not drawn) [Compound T-82] | 100 to 1000 | ≥ 1000 | ≥ 1000 |  |
| COc1cc(N2CCN(C(=O)CN3CCC(c4ccc(NC5CCC(=O)NC5=O)nc4)CC3)CC2)ccc1Nc1ncc(Cl)c(Nc2ccccc2C(C)=O)n1 (stereo not drawn) [Compound T-100] | 100 to 1000 | 100 to 1000 | 100 to 1000 |  |
| COc1cc(N2CCN(C(=O)CN3CCN(c4ccc5c(c4)CN(C4CCC(=O)NC4=O)C5=O)CC3)CC2)ccc1Nc1ncc(Cl)c(Nc2ccccc2C(C)=O)n1 (stereo not drawn) [Compound T-109] | 100 to 1000 | ≥ 1000 | ≥ 1000 |  |
| COc1cc(N2CCN(C(=O)CN3CCC(c4ccc(NC5CCC(=O)NC5=O)cc4)CC3)CC2)c(C)cc1Nc1ncc(Cl)c(Nc2ccccc2)n1 (stereo not drawn) [Compound T-122] | 100 to 1000 | 100 to 1000 | 100 to 1000 |  |
| COc1cc(N2CCN(C(=O)CN3CCC(c4ccc(NC5CCC(=O)NC5=O)cc4)CC3)C(C)C2)ccc1Nc1ncc(Cl)c(Nc2ccccc2)n1 (stereo not drawn) [Compound T-124] | 100 to 1000 | ≥ 1000 | ≥ 1000 |  |
| COc1cc(N2CCN(C(=O)CN3CCC(c4ccc(NC5CCC(=O)NC5=O)cc4)CC3)CC2)ccc1Nc1ncc(Cl)c(Nc2cc(F)ccc2F)n1 (stereo not drawn) [Compound T-132] | 100 to 1000 | 100 to 1000 | ≥ 1000 |  |
| COc1cc(N2CCN(CCCN3CCC(c4ccc(NC5CCC(=O)NC5=O)cc4)CC3)CC2)ccc1Nc1ncc(Cl)c(Nc2ccccc2C(C)=O)n1 (stereo not drawn) [Compound T-183] | 100 to 1000 |  |  |  |
| COC(=O)c1ccccc1Nc1nc(Nc2ccc(N3CCN(C(=O)CN4CCC(c5ccc(NC6CCC(=O)NC6=O)cc5)CC4)CC3)cc2OC)ncc1Cl (stereo not drawn) [Compound T-194] | 100 to 1000 |  |  |  |
| COc1cc(N2CCN(C(=O)CN3CCN(c4ccc5c(c4)C(=O)N(C4CCC(=O)NC4=O)C5=O)CC3)CC2)ccc1Nc1ncc(Cl)c(Nc2ccccc2C(C)=O)n1 (stereo not drawn) [Compound T-201] | 100 to 1000 |  |  |  |
| COc1cc(N2CCN(C(=O)C3CCN(CC4CCN(c5ccc6c(c5)C(=O)N(C5CCC(=O)NC5=O)C6=O)CC4)CC3)CC2)ccc1Nc1ncc(Cl)c(Nc2ccccc2C(C)=O)n1 (stereo not drawn) [Compound T-204] | 100 to 1000 |  |  |  |
| COc1nc(N2CCN(C(=O)CN3CCC(c4ccc(NC5CCC(=O)NC5=O)cc4)CC3)CC2)ccc1Nc1ncc(Cl)c(Nc2ccccc2C(C)=O)n1 (stereo not drawn) [Compound T-208] | 100 to 1000 |  |  |  |
| COc1cc(N2CCN(C(=O)CNc3ccc4c(c3)C(=O)N(C3CCC(=O)NC3=O)C4=O)CC2)ccc1Nc1ncc(Cl)c(Nc2ccccc2C(C)=O)n1 (stereo not drawn) [Compound T-230] | 100 to 1000 |  |  |  |
| COc1cc(N2CCN(CC(=O)NCCNc3cccc4c3C(=O)N(C3CCC(=O)NC3=O)C4=O)CC2)ccc1Nc1ncc(Cl)c(Nc2ccccc2C(C)=O)n1 (stereo not drawn) [Compound T-238] | 100 to 1000 |  |  |  |
| COC(=O)Nc1ccccc1Nc1nc(Nc2ccc(N3CCN(C(=O)CN4CCC(c5ccc(NC6CCC(=O)NC6=O)cc5)CC4)CC3)cc2OC)ncc1Cl (stereo not drawn) [Compound T-340] | 100 to 1000 |  |  |  |
| CCc1cc(Nc2ncc(Cl)c(Nc3ccccc3C(=O)NC)n2)c(OC)cc1N1CCN(C(=O)CN2CCC(c3ccc(NC4CCC(=O)NC4=O)cc3)CC2)CC1 (stereo not drawn) [Compound T-361] | 10 to 100 |  |  |  |
| CCc1cc(Nc2ncc(Br)c(Nc3ccccc3C(=O)NC)n2)c(OC)cc1N1CCN(C(=O)CN2CCC(c3ccc(NC4CCC(=O)NC4=O)cc3)CC2)CC1 (stereo not drawn) [Compound T-362] | 10 to 100 |  |  |  |
| CNC(=O)c1ccccc1Nc1nc(Nc2cc(C)c(N3CCN(C(=O)CN4CCN(c5ccc(NC6CCC(=O)NC6=O)cc5)CC4)CC3)cc2OC)ncc1Cl (stereo not drawn) [Compound T-364] | 10 to 100 |  |  |  |
| CCc1cc(Nc2ncc(Cl)c(Nc3ccccc3C(=O)NC)n2)c(OC)cc1N1CCN(C(=O)CN2CCC(c3ccc(NC4CCC(=O)NC4=O)cc3)CC2)CC1 (stereo not drawn) [Compound T-375] |  |  |  | IC50 [1]: 10 to 100 nM |
| CNC(=O)c1ccccc1Nc1nc(Nc2cc(CC(F)(F)F)c(N3CCN(C(=O)CN4CCC(c5ccc(NC6CCC(=O)NC6=O)cc5)CC4)CC3)cc2OC)ncc1Cl (stereo not drawn) [Compound T-377] | 10 to 100 |  |  |  |
| CCc1cc(Nc2ncc(Cl)c(Nc3ccccc3C(C)=O)n2)c(OC)cc1N1CCN(C(=O)CN2CCC(c3ccc(NC4CCC(=O)NC4=O)cc3)CC2)CC1 (stereo not drawn) [Compound T-378] | 10 to 100 |  |  |  |

Second part, led by results:

| IC50 ([1]; Homo sapiens, NCI-H1975, 72 h) [nM] | IC50 ([2]; Homo sapiens, HCC827, 72 h) [nM] | IC50 ([3]; Homo sapiens, PC-9, 72 h) [nM] | SMILES | also measured |
| --- | --- | --- | --- | --- |
| 10 to 100 | ≥ 1000 | 100 to 1000 | COc1cc(N2CCN(C(=O)CN3CCC(c4ccc(NC5CCC(=O)NC5=O)cc4)CC3)CC2)ccc1Nc1ncc(C(F)(F)F)c(Nc2ccccc2)n1 (stereo not drawn) [Compound T-02] |  |
| 10 to 100 | 100 to 1000 | ≥ 1000 | COc1cc(N2CCN(C(=O)CN3CCC(c4ccc(NC5CCC(=O)NC5=O)cc4)CC3)CC2)ccc1Nc1ncc(C(F)(F)F)c(Nc2ccccc2P(C)(C)=O)n1 (stereo not drawn) [Compound T-46] |  |
| 10 to 100 | 100 to 1000 | 100 to 1000 | COc1cc(N2CCN(C(=O)CN3CCC(c4ccc(NC5CCC(=O)NC5=O)cc4)CC3)CC2)c(C)cc1Nc1ncc(C(F)(F)F)c(Nc2ccccc2C(C)=O)n1 (stereo not drawn) [Compound T-58] |  |
| 10 to 100 | 100 to 1000 | 100 to 1000 | COc1cc(N2CCN(C(=O)CN3CCC(c4ccc(NC5CCC(=O)NC5=O)cc4)CC3)CC2)c(C)cc1Nc1ncc(Br)c(Nc2ccccc2C(C)=O)n1 (stereo not drawn) [Compound T-59] |  |
| 10 to 100 | ≥ 1000 | ≥ 1000 | COc1cc(N2CCN(C(=O)CN3CCC(c4ccc(NC5CCC(=O)NC5=O)cc4)CC3)CC2)ccc1Nc1ncc(Cl)c(Nc2cccc(C#N)c2)n1 (stereo not drawn) [Compound T-134] |  |
| 100 to 1000 | 100 to 1000 | ≥ 1000 | COc1cc(N2CCN(C(=O)CN3CCC(c4ccc(NC5CCC(=O)NC5=O)cc4)CC3)CC2)ccc1Nc1ncc(C(F)(F)F)c(-c2cn(C)c3ccccc23)n1 (stereo not drawn) [Compound T-135] |  |
| 100 to 1000 |  |  | COc1cc(N2CCN(C(=O)CN3CCC(c4ccc5c(cnn5C5CCC(=O)NC5=O)c4)CC3)CC2)ccc1Nc1ncc(Cl)c(Nc2ccccc2)n1 (stereo not drawn) [Compound T-326] |  |
| 10 to 100 |  |  | CCc1cc(Nc2ncc(C(F)(F)F)c(Nc3ccccc3C(=O)NC)n2)c(OC)cc1N1CCN(C(=O)CN2CCC(c3ccc(NC4CCC(=O)NC4=O)cc3)CC2)CC1 (stereo not drawn) [Compound T-363] |  |
| 10 to 100 |  |  | CCNC(=O)c1ccccc1Nc1nc(Nc2ccc(N3CCN(C(=O)CN4CCC(c5ccc(NC6CCC(=O)NC6=O)cc5)CC4)CC3)cc2OC)ncc1Br (stereo not drawn) [Compound T-374] |  |
| 10 to 100 |  |  | CNC(=O)c1ccccc1Nc1nc(Nc2cc(CC(F)(F)F)c(N3CCN(C(=O)CN4CCC(c5ccc(NC6CCC(=O)NC6=O)cc5)CC4)CC3)cc2OC)ncc1Br (stereo not drawn) [Compound T-381] |  |

Source: US20250129086A1, “COMPOUND FOR DEGRADING EGFR PROTEIN AND USE THEREOF” (TYK MEDICINES, INC., priority 2021, published 2025)
